Measured values: patent US20240360134A1, “PYRAZOLOPYRIMIDINES AND THEIR USES AS PDGFR INHIBITORS” (priority 2021, published 2024)

Assays:
[1] = in vivo; cited from earlier work
[2] = target: VEGFR2, unphosphorylated (Homo sapiens (Human), UniProt P35968); experiment: VEGFR ADP GLO assay; type: biochemical; conditions: 5 nM VEGFR2, 1.2 mM ATP, 1 mg/mL Srctide, 180 min
Outline: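 Unphosphorylated kinase (10 nM 2× solution) pre-incubated 30 min at RT with compounds (11-point, 3-fold, top 10 µM), then reacted 180 min with srctide and ATP (2×: 2 mg/mL, 2.4 mM) in HEPES pH 7.5 buffer. ADP read by luminescence. IC50 from 4-parameter fit, normalized to DMSO and 1 µM TAK-593.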

[3] = target: PDGFRβ (Rattus norvegicus (Rat), UniProt Q05030); experiment: PDGFRβ Cellular Assay (PDGFRb P-Y751 HTRF, PDGF-BB stimulated A10 cells); type: cell-based; conditions: A10 cells, 3 hours compound, 15 ng/mL PDGFbb for 10 minutes; read-out: PDGFR Cellular IC50
Outline: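 Rat A10 cells plated overnight were treated with compound for 3 h, stimulated with rat PDGF-BB (working stock 100 ng/mL in 10% FBS medium) for 10 min, then lysed.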

[4] = target: His6-TEV-PDGFRβ (557-1016) (Homo sapiens (Human), UniProt P09619); experiment: PDGFRβ HTRF Assay; type: biochemical; conditions: 800 μM ATP, 0.5 μM TK-substrate biotin peptide, 30 min pre-incubation, 3 hours reaction; read-out: PDGFR HTRF IC50
[5] = target: Tb-labeled inactive PDGFRβ (Homo sapiens (Human), UniProt P09619); experiment: biochemical; type: binding; conditions: read-out: PDGFR Lantha IC50
Chain of Tb-labeled inactive PDGFRβ (P09619 whole entry, looked up): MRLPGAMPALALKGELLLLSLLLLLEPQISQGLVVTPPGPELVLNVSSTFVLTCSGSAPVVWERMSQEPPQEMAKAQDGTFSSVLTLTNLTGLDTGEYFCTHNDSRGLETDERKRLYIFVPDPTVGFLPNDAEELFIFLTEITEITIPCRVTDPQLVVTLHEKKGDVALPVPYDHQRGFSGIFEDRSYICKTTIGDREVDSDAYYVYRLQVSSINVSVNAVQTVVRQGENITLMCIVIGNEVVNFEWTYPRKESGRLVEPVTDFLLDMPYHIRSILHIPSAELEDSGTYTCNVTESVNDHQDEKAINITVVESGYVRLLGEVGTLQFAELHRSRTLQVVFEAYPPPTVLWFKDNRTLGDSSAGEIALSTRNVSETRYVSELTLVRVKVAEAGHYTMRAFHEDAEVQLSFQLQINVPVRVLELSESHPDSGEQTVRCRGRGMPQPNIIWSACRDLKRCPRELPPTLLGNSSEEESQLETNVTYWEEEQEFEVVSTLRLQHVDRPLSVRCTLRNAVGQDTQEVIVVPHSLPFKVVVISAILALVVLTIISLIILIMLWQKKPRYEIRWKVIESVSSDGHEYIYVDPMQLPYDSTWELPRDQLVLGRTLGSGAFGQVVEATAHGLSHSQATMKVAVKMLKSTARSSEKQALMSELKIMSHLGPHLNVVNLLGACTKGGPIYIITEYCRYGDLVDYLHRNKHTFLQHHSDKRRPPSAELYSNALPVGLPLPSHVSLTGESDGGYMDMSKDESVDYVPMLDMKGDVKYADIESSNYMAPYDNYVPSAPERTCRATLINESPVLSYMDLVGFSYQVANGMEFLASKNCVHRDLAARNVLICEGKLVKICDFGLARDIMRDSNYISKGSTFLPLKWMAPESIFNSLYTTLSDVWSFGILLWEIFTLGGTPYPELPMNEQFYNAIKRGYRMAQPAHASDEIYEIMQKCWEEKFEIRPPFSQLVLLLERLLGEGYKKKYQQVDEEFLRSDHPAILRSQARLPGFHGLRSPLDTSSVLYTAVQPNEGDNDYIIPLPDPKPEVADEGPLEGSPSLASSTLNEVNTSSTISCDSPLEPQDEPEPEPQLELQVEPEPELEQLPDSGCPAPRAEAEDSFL

Chain of His6-TEV-PDGFRβ (557-1016) (P09619 whole entry, looked up): as above
Chain of VEGFR2, unphosphorylated (P35968 whole entry, looked up): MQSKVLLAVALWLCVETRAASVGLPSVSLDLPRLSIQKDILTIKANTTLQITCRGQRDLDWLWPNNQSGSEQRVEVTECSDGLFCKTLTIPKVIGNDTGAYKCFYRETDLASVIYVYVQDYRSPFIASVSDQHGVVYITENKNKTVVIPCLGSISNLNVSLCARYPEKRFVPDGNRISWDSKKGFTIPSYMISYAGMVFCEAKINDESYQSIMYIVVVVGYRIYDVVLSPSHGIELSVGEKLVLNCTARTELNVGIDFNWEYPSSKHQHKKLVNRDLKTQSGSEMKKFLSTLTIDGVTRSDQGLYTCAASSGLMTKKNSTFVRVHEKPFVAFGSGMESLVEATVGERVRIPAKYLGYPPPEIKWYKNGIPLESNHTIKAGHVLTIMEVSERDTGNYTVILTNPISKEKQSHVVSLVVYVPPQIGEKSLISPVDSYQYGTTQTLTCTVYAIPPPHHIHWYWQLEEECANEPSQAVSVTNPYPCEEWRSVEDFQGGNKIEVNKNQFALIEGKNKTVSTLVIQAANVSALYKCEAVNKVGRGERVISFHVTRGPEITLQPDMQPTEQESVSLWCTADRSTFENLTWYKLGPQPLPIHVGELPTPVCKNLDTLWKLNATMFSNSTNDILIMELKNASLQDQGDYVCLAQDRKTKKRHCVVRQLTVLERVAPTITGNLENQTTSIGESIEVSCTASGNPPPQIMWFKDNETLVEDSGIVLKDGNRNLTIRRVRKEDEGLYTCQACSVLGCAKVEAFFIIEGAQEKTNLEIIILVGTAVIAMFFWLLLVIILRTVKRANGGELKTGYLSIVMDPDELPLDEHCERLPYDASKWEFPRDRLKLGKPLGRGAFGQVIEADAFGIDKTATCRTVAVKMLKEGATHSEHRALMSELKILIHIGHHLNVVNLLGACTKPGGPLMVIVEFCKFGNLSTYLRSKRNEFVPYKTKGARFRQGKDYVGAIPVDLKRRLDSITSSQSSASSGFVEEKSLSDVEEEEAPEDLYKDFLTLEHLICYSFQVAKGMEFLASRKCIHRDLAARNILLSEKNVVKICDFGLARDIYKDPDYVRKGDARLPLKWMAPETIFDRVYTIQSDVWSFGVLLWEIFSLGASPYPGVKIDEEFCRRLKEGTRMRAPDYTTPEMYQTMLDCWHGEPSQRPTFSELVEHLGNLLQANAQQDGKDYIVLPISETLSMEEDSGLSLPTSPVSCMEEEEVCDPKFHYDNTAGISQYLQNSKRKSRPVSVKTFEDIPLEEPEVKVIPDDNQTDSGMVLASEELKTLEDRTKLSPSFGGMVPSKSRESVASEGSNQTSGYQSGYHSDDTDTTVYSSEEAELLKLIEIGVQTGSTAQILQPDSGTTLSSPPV
Chain of PDGFRβ (Q05030 whole entry, looked up): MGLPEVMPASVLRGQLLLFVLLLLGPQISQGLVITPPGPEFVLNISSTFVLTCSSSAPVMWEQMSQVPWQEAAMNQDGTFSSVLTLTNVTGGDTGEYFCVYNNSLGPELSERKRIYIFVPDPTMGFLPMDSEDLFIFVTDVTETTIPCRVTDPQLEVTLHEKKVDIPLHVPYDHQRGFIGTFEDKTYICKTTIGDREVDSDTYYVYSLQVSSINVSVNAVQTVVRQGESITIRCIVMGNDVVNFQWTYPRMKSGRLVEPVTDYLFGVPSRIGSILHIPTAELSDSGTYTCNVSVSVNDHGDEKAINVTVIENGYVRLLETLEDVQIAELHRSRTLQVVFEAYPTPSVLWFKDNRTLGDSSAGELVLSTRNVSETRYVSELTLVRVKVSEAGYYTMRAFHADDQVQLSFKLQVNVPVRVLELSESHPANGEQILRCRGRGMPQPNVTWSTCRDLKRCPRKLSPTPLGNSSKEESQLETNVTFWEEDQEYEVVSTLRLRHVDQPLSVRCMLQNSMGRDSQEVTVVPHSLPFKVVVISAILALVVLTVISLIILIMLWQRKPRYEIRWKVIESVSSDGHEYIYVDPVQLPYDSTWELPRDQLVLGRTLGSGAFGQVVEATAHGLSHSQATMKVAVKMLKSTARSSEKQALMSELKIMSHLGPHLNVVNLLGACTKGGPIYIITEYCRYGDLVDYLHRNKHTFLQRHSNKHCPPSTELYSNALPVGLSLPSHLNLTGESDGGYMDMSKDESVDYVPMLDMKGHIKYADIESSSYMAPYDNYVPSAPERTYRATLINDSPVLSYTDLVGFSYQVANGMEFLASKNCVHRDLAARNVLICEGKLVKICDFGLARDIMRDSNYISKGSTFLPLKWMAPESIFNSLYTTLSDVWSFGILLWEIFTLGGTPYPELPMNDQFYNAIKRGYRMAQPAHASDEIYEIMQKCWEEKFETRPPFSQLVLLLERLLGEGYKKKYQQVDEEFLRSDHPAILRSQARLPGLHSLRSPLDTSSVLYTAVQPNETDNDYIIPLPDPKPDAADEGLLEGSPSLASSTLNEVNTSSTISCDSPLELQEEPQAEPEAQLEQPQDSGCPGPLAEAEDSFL

SMILES	cardiotoxicity and development of pulmonary hypertension [1]	IC50 [2]	IC50 [3]	IC50 [4]	IC50 [5]
Cc1nc(Nc2ncc(C(=O)Nc3c(C)cccc3Cl)s2)cc(N2CCN(CCO)CC2)n1 [dasatinib]	linked to cardiotoxicity and the development of pulmonary hypertension				
CC(=O)Nc1cncc(Nc2ncc3c(Nc4cc(C(=O)NCCN5CCCC5(C)C)cnc4C)nn(C)c3n2)c1 [Example 99, 5-((6-((5-acetamidopyridin-3-yl)amino)-1-methyl-1H-pyrazolo[3,4-d]pyrimidin-3-yl)amino)-N-(2-(2,2-dimethylpyrrolidin-1-yl)ethyl)-6-methylnicotinamide]		> 7500 nM	137 nM	0.66 nM	5.9 nM
Cc1ncc(C(=O)NCCN(C(C)C)C(C)C)cc1Nc1nn(C)c2nc(Nc3cncnc3)ncc12 [Example 15, N-(2-(diisopropylamino)ethyl)-6-methyl-5-((1-methyl-6-(pyrimidin-5-ylamino)-1H-pyrazolo[3,4-d]pyrimidin-3-yl)amino)nicotinamide]		> 7500 nM	33.2 nM	1.01 nM	9.9 nM
Cn1cc(Nc2ncc3c(Nc4cc(C(=O)NCCN5CC(C)(C)C5)ccc4F)nn(C)c3n2)cn1 [Example 120, N-(2-(3,3-dimethylazetidin-1-yl)ethyl)-4-fluoro-3-((1-methyl-6-((1-methyl-1H-pyrazol-4-yl)amino)-1H-pyrazolo[3,4-d]pyrimidin-3-yl)amino)benzamide]		> 7500 nM	9.9 nM	0.32 nM	3.3 nM
Cc1cc(C(=O)NCCN2CC3COCC3C2)sc1Nc1nn(C)c2nc(Nc3cnn(C)c3)ncc12 (stereo not drawn) [Example 61, 4-methyl-5-((1-methyl-6-((1-methyl-1H-pyrazol-4-yl)amino) 1H-pyrazolo[3,4-d]pyrimidin-3-yl)amino)-N-(2-(tetrahydro-1H-furo[3,4-c]pyrrol-5(3H)-yl)ethyl)thiophene-2-carboxamide]		3860 nM	86.8 nM	0.61 nM	10.2 nM
Cc1ncc(C(=O)NCCN2CCCC2(C)C)cc1Nc1nn(C)c2nc(Nc3ccc(=O)n(C)n3)ncc12 [Example 31, N-(2-(2,2-dimethylpyrrolidin-1-yl)ethyl)-6-methyl-5-((1-methyl-6-((1-methyl-6-oxo-1,6-dihydropyridazin-3-yl)amino)-1H-pyrazolo[3,4-d]pyrimidin-3-yl)amino)nicotinamide]		> 7500 nM	390 nM	2.5 nM	60.3 nM
